The text below walks through data of PubChem BioAssay (NCI).

Among the test systems are MDA-MB-435; NCI-H226 lung; LOX IMVI melanoma; MALME-3M melanoma; SF-539 CNS; UO-31 renal; HL-60(TB) leukemia; HS 578T breast; COLO 205 colon; K-562 leukemia.
Holding throughout (test): NCI-60 cell line screen, 48 h

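Exposure lasted 48 hours, with cells grown in 96-well plates and compounds tested at five concentrations. Abbreviation: GI50, concentration required for 50% inhibition of growth. TGI denotes the concentration required for complete inhibition of growth.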

For the compound `O=C(Nc1ccc2ccccc2c1)Nn1cnnc1`, the TGI in the assay with MDA-MB-435, with NCI-H226 lung, in the assay with LOX IMVI melanoma, in the assay with MALME-3M melanoma, in the assay with SF-539 CNS and with UO-31 renal was > 100 µM in each case. In addition, the TGI with HL-60(TB) leukemia, in the assay on HS 578T breast, with COLO 205 colon and in the assay on K-562 leukemia was > 100 µM throughout.
With `Cc1nc2ccccc2c(=O)n1NC(=O)Cc1ccccc1`, the TGI in the assay with MDA-MB-435, in the assay on NCI-H226 lung, with LOX IMVI melanoma, in the assay on MALME-3M melanoma, in the assay on SF-539 CNS and in the assay on UO-31 renal was > 100 µM throughout. Further, the TGI with HL-60(TB) leukemia, in the assay with HS 578T breast, with COLO 205 colon and in the assay on K-562 leukemia was > 100 µM throughout.
`CC1(C)Oc2ccc(Cl)cc2C12CC2`: the TGI in the assay on MDA-MB-435 is 32.6 µM; with NCI-H226 lung, 32.2 µM; in the assay with LOX IMVI melanoma, 30.9 µM; in the assay with MALME-3M melanoma, 43.2 µM; in the assay on SF-539 CNS it was > 100 µM; in the assay on UO-31 renal it was 30.8 µM. The TGI was 40.3 µM in the assay with HL-60(TB) leukemia, 44.8 µM with HS 578T breast, 32.9 µM in the assay with COLO 205 colon and 39.2 µM in the assay with K-562 leukemia.
As for `Oc1c(I)cc(I)cc1CNCCCN(Cc1ccccn1)Cc1ccccn1`, the GI50 was 0.997 µM with MDA-MB-435; 0.902 µM in the assay with NCI-H226 lung; 0.926 µM in the assay with LOX IMVI melanoma; 0.873 µM with MALME-3M melanoma; 0.863 µM in the assay on SF-539 CNS; 0.786 µM in the assay with UO-31 renal. Further, the GI50 is 1.08 µM in the assay with HL-60(TB) leukemia, 1.38 µM in the assay on HS 578T breast, 1.65 µM in the assay with COLO 205 colon and 1.71 µM in the assay on K-562 leukemia. For the same compound, the TGI stood at 2 µM with MDA-MB-435; 2 µM in the assay with NCI-H226 lung; 1.77 µM in the assay with LOX IMVI melanoma; 1.73 µM with MALME-3M melanoma; 1.61 µM with SF-539 CNS; 1.46 µM in the assay on UO-31 renal. For the same compound, the TGI in the assay with HL-60(TB) leukemia worked out at 2.51 µM; with HS 578T breast, 4.53 µM; in the assay with COLO 205 colon it was 5.99 µM; in the assay with K-562 leukemia, 50 µM.
Take `CC(=O)NC1C(OCc2ccccc2)OC(CO)C(O)C1OCC(=O)NC(C)C(=O)NC(CCC(=O)NCCCCCC(=O)Nc1ccc2c(c1)CN1C(=O)c3ccccc3C1=N2)C(N)=O` (centres undefined): the TGI with MDA-MB-435, with LOX IMVI melanoma, with MALME-3M melanoma, with SF-539 CNS, in the assay on UO-31 renal and in the assay with HL-60(TB) leukemia was > 100 µM throughout. The TGI in the assay with HS 578T breast, with COLO 205 colon and in the assay on K-562 leukemia was > 100 µM in each case.
As to `C=C(C)CC1=C(C(=S)NCCO[Si](C)(C)C(C)(C)C)C(OCC)(OCC)C1=O`, the TGI was 41.9 µM in the assay with MDA-MB-435; 56.9 µM in the assay on LOX IMVI melanoma; 27.1 µM in the assay on MALME-3M melanoma; 37.8 µM with SF-539 CNS; 35.9 µM in the assay with UO-31 renal; > 100 µM in the assay on HL-60(TB) leukemia. In addition, the values for the TGI in the assay with HS 578T breast and in the assay on COLO 205 colon were > 100 µM and 75 µM, respectively.
Turning to `CC(C)OC(=O)c1ccc(CCC2=CC(=O)C(Br)=CC2=O)cc1`, the TGI with MDA-MB-435 amounted to 32.9 µM; in the assay on NCI-H226 lung, 71.9 µM; in the assay on LOX IMVI melanoma it was 30.8 µM; in the assay with MALME-3M melanoma, 29.1 µM; with SF-539 CNS it was 35.5 µM; in the assay with UO-31 renal it was 27.1 µM. For the same compound, the TGI in the assay with HL-60(TB) leukemia amounted to 9.25 µM; with HS 578T breast, 38.1 µM; with COLO 205 colon, 24.7 µM; with K-562 leukemia, 9.12 µM.
Regarding `CN(N)C(=O)NCCCl`, the TGI with MDA-MB-435 is > 100 µM; in the assay on NCI-H226 lung, 6.42 µM; in the assay on LOX IMVI melanoma it was > 100 µM; in the assay with MALME-3M melanoma, > 100 µM; with SF-539 CNS, > 100 µM; with UO-31 renal, > 100 µM. The TGI with HL-60(TB) leukemia, in the assay on HS 578T breast, in the assay on COLO 205 colon and in the assay with K-562 leukemia was > 100 µM throughout.
Take `[N-]=[N+]=C1CNC(=O)NC1=O`: the TGI with MDA-MB-435, in the assay on NCI-H226 lung, in the assay on LOX IMVI melanoma, with MALME-3M melanoma, in the assay with SF-539 CNS and in the assay with UO-31 renal was > 100 µM each time. Besides, the TGI in the assay on HL-60(TB) leukemia, in the assay with HS 578T breast, with COLO 205 colon and in the assay with K-562 leukemia was > 100 µM throughout.
As to `CC(=O)c1ccc2c(c1)oc(=O)n2CCN(C)C`, the TGI in the assay with MDA-MB-435, in the assay with NCI-H226 lung, in the assay on LOX IMVI melanoma, with MALME-3M melanoma, in the assay on SF-539 CNS and with HL-60(TB) leukemia was > 100 µM throughout. Also, the TGI with HS 578T breast and with COLO 205 colon was > 100 µM each time.
With `Cc1nnc(N)nc1/C=C\c1cccs1`, the TGI with MDA-MB-435 was 74.9 µM; in the assay on NCI-H226 lung, 49.4 µM; with LOX IMVI melanoma, > 100 µM; with MALME-3M melanoma it was 29.4 µM; in the assay with UO-31 renal, 40.9 µM; with HL-60(TB) leukemia, 31.7 µM. Besides, the TGI was > 100 µM with HS 578T breast, > 100 µM in the assay on COLO 205 colon and 59.7 µM with K-562 leukemia.
